Here are results for one compound from patent US20160129005A1, “ADENINE DERIVATIVES HAVING IMMUNOMODULATING ANTI-INFLAMMATORY AND ANALGESIC ACTIVITY” (MEDESTEA RESEARCH & PRODUCTION S.p.A., priority 2011, published 2016).

The subject of experiment [1] is mdx mice. The experiment in a line: Muscular dystrophy model. In kind it is in vivo, mouse. The text has this:
The mdx mouse is characterized by a nonsense mutation in the dystrophin gene and constitutes an experimental model of DMD. The muscle of mdx is histologically normal in early postnatal development, but goes towards necrosis starting from the third week of life. The mdx mice show high levels of creatine kinase (CK) in the serum and accumulation of inflammatory cells, both markers of muscular degeneration. To assess the effect of […] in the progression of dystrophy and of inflammation in DMD, we treated mdx mice (n=10) at 4 weeks of age (in accordance with the recent SOPs for preclinical drug trials in mdx) with […] (0.25 mg/mouse) intraperitoneally every day for two weeks. The same number of mice of the same age was treated with the vehicle as control. After two weeks of treatment with […], the CK levels had decreased by 70% (P<0.05) (FIG. 33).
Cross sections of anterior tibial muscles stained with haematoxylin/eosin were quantified in duplicate in blind conditions with ImageJ software. In the same sections we also assessed centralization of the nucleus, degeneration of muscle fibres and their regeneration. […] The values obtained for the mice treated with […] were similar to those obtained for the control mice of the same age and genotype but without mutation in the dystrophin gene.
To assess the effect of […] on the inflammatory infiltrate in the muscle of mdx mice, the muscle sections were decorated with anti-CD3 antibodies (T cells). This analysis detected a 40% decrease in the number of cells positive for CD3.

In experiment [2] the test system is Sprague-Dawley (SD) rats. As to the kind of experiment: Renal ischaemia/reperfusion injury. In kind it is in vivo, rat. The text has this:
Ischaemia is an acute pathologic event in which there is reduction in blood supply with resultant injury or dysfunction of the affected tissue. Currently, the obstructed blood vessel is cleared by direct intervention. The resumption of normal circulation after a period of hypoxia causes quite considerable tissue injury, however, with fibrotic results that undermine the functionality of the affected organ. […] We wanted to check whether […] could reduce the injury due to reperfusion and to do so we used a model of renal ischaemia. The model envisages creation of an ischaemic event and then verification of the injury following treatment with […] or with the vehicle.
The experiment was conducted on Sprague-Dawley (SD) rats of 250-300 g divided into three groups. The first group, the […], only underwent an incision, which was kept open for 30 minutes, without ischaemic injury. The other two were pretreated, 30 minutes before undergoing the intervention, with intraperitoneal administration of vehicle (group 2) or of […] (group 3) 10 mg/kg. […]
The kidneys were sectioned for histologic analysis in double-blind conditions. The percentages of the tissue changes observed were counted using a 5-point semiquantitative scale, defined for assessing necrosis and cellular loss: 0=normal kidney; 0.5=<10%; 1=10-25%; 2=25-50%; 3=50-75%; 4=75-100%.

The test system of experiment [3] is C57BL/6 WT mice. The experiment in a line: Allergic contact dermatitis (TNCB sensitization, ear thickness). As to conditions: 2 mg/kg injected locally in the auricle 4 hours before stimulus; FIG. 36. In kind it is in vivo, mouse. The procedure:
C57BL/6 WT mice are sensitized by applying, on day 0, 100 μl of 3% TNCB (2,4,6-trinitrochlorobenzene) in acetone, or only acetone as control, on the skin of the abdomen.
As stress, 20 μl of 1% TNCB is applied on the skin of the back of both ears on day 5. This stress causes an allergic reaction that is manifested as swelling and reddening. The thickness of the ear (symptom of swelling) is measured 24 hours after application of the stimulus, using callipers (Mitutoyo). […] was injected locally in the auricle at a dose of 2 mg/kg 4 hours before the […] stimulus.

For experiment [4], the system named is female NZB/NZW F1 mice. The experiment in a line: Systemic lupus erythematosus model. Format: in vivo, mouse. On the procedure: Systemic lupus erythematosus (SLE) is a chronic autoimmune disease that generally begins with arthritis or arthralgia. Haematuria or proteinuria may be the only renal symptom, however, lupus glomerulonephritis may lead to acute or terminal renal failure. An experimental model of SLE consists of female F1 mice derived from crossing of the NZB strain with NZW. To evaluate the possible effect of […] in SLE, we treated female NZB/NZW F1 mice with 0.25 mg of […] or carrier 5 days a week for six weeks, starting the treatment when the mice had developed anti-DNA antibodies.

Experiment [5] deals with C57BL/6 mice transplanted with BALB/c hearts. The experiment in a line: Murine heterotopic heart transplant model. In kind it is in vivo, mouse. On the procedure: The immunosuppressive potential of […] was tested on a heterotopic heart transplant model; hearts of BALB/c mice were transplanted into the abdominal cavity of C57BL/6 mice.
The beats of the heart were measured, twice weekly, by palpation; stopping of beating was regarded as a sign of transplant rejection.
Three different protocols were used for prolonging transplant survival times: the “short-term” protocol ([…] 9 mg/kg daily for 14 days), the “long-term” protocol ([…] 9 mg/kg every day until rejection), and the “Combo” protocol ([…] on alternate days: day 0, 2, 4, 6, 8, 10, 12, 14+Rapamycin 0.1 mg/kg from day 0 to day 10).
In the acute heart transplant models, the hearts of BALB/c were transplanted into the peritoneal cavity of C57BL/6 mice. The control mice invariably reject the transplant in 10 days (Ctrl: MST=7 days, n=12), (FIG. 26). The “short-term” protocol permitted indefinite survival (100 days) in 10 mice out of 12 (n=12; p=0.0001 vs. Ctrl), (FIG. 26). Similarly, the “long-term” protocol permitted indefinite survival in 8 mice out of 10 (n=10; p=0.002 vs Ctrl), and prolonged survival in the remaining 2 (16 days and 25 days; p=0.002 vs. Ctrl), (FIG. 26).
The histological sections of the hearts on day 7 of BALB/c mice, transplanted into a C57BL/6 host, and treated with the “short-term” protocol, were also analysed.

Setting [6] is: quantitative PCR, vs vehicle, FIG. 35.
Setting [7] is: 60 days from the end of treatment.

Several values for one entry are separate records, joined by “and”; a condition that tells them apart may be missing. Equal values may be shown once.

As to `C=C(C=O)OC(C=O)n1cnc2c(N)ncnc21` (stereo not drawn) [2-[1-(6-aminopurin-9-yl)-2-oxoethoxy]prop-2-enal], in experiment [1] (0.25 mg/mouse i.p. daily for two weeks, P<0.05, FIG. 33), the “decrease of creatine kinase (CK) levels” value was 70%. In experiment [1] (anterior tibial muscles), the “centralization of the nucleus” value is recorded as “significant reductions” and the “number of degenerative fibres” value is recorded as “significant reductions”. In experiment [1] (anterior tibial muscles, vs carrier, FIG. 34), the “area of the muscle cross sections (CSA)” value is given as “significant increase in area of the muscle cross sections”. Moreover, in experiment [1] (anti-CD3 stained muscle sections), the “decrease in the number of cells positive for CD3 in muscle” value was found to be 40%. Besides, in experiment [1] (setting [6]), the I1-1β result was “significant reduction” and the “levels of mRNA typical of the Treg cells” value is listed as “significant increase”. The “renal injury (histological damage score and organ functionality)” value in experiment [2] (10 mg/kg i.p., FIG. 6) was “largely prevents renal injury”. Moreover, in experiment [2] (group 3, 10 mg/kg i.p. 30 minutes before ischaemia, 24 hours, group 1 = sham, FIG. 5), the plasma creatinine levels entry was “values much closer to those of group 1”. The “allergic reaction (thickness of the ear)” value in experiment [3] is “able to inhibit the allergic reaction”. In addition, the proteinuria result in experiment [4] (0.25 mg 5 days a week for six weeks, two months following the treatment) is “did not appear”. Also, in experiment [4] (setting [7]), the “deposition of immune complexes (histopathological score)” value is reported as “significant decrease”, the “glomerular proliferation (histopathological score)” value is given as “significant decrease” and the “lymphocyte infiltration (histopathological score)” value is given as “significant decrease”. The “prolonged survival in the remaining 2 mice” value in experiment [5] (long-term protocol) was 16 days and 25 days. Moreover, in experiment [5] (short-term protocol, day 7), the anti-FoxP3 labelling result is on record as “did not show significant differences”, the “lymphocyte tissue infiltration (haematoxylin-eosin)” value was “absent” and the “presence of mature macrophages” value is “completely inhibited”. In experiment [5] (short-term protocol, day 7, vs controls), the “B and T lymphocytes (anti-B220, anti-CD3)” value is reported as “appear to decrease numerically”. Further, the vasculopathy score in experiment [5] (short-term protocol, Ctrl=2.0±0.003, p=0.007, FIG. 28C) is given as 0.3±0.3. Also, the “score of degree of infiltration” value in experiment [5] (short-term protocol, Ctrl=2.7±0.3, p=0.01, FIG. 28B) amounted to 0.7±0.3.
